Experimental data reported in patent US7071206B2, “Agents for treating neurodegenerative disorders” (Medivation, Inc., priority 1995, dated 2006).
“And” between values parts separate entries of the source, which are not always exact repeats. Equal values may be shown once. Marks after values point to notes of the source that are not given here.

Test system: patients suffering from Alzheimer's disease
Assay: Clinical trial of dimebon tablets, inventors' scale (E. E. Bukatina et al.; 0 = absence of a symptom, 4 = greatest manifestation)
Format: in vivo, human
Method: The test was carried out under the direct supervision by two of the inventors, namely E. E. Bukatina and V. Grigorieva, in 14 patients who agreed to take part in the tests, 13 of whom lived in a boarding house for senile persons and one patient lived with their family.
Alzheimer's disease was diagnosed on the basis of criteria ICD-10 NINCDS ADRDA.
Dimebon in the form of tablets (comprising 10 mg of dimebon, 30 mg of lactose, 5 mg of magnesium stearate was prescribed for oral administration in a dose of 0.02 g three to times a day. The patients living in the boarding house received dimebon for 58 days. A patient (observation 14) who was under outpatient observation continued taking the agent for a month after the completion of the tests.
Before the treatment with dimebon, and at 4 and 8 weeks after treatment the patients were examined according to Hazegawa's scale and the inventors' scale (“Social and Clinical Psychiatry”, 1992, No.4, pp.29–37) which includes the following indexes: (1) orientation in locality, time, immediate surroundings and one's own personality; (2) orientation in space; (3) memory for the past; (4) memory for the present; (5) “life in the past”; (6) (a) articulation, (b) difficulty in finding words, and distortion of words; (c) naming of objects; (d) following instructions; (7) concentration (of attention); (8) an affective sphere; (a) high spirits, (b) low spirits; (9) delirium; (10) hearing hallucinations; (11) visual hallucinations; (12) senile or senile-like confusion (when motion anxiety is accompanied by the revival of the past experience); (13) irritability; (14) anxiety; (15) asthenia; (16) headaches; (17) dizziness; (18) tearfulness; (19) spontaneous activity; (20) elementary self-service; and (21 control of sphincters.
According to the Hazegawa's scale, the 0 score indicates the poorest result; on the contrary, according to the inventors' scale, the 0 score indicates the absence of a symptom 4 score indicates the greatest manifestation thereof. […] Before the therapy was started, the patients had been independently examined by two doctors who used the inventors' scale. The examination during the treatment was carried out by the doctors using both the scales. The evaluation according to all the inventors' scale points during all the tests and their variations during the treatment with dimebon are given in the Appendix.
According to the inventors' scale, the degree of the disturbance if the cognitive functions was determined by a sum of evaluations according to the first 5 scale points reflecting the condition of memory, orientation and relation with the reality. The disturbance of speech was dealt with separately and was determined by a sum of evaluations according to items 6b-6d.
Both absolute evaluations of the signs under investigation (the evaluation prior to treatment is a mean evaluation of the two examinations) and variations in them were analysed in the course of therapy. In doing so, only those changes that were beyond the range of evaluations obtained in two pre-treatment examinations were taken into consideration.
The test results reflected the condition of the patients at the time of the examination. Any changes in the metal state observed in the interval between the tests and disappearing by the moment of examination according to the scale were described in the section “Clinical Observations”.
The statistical data processing was carried out by means of Student's t-test and Fisher's “Fi” criterion.

[1] = score after 4 weeks, per patient, listed as dimebon
[2] = score after 8 weeks, per patient, listed as dimebon

How did the “share of patients with improvement of depression” value (of 11 patients with depressive symptoms prior to treatment, 8 weeks) turn out when `Cc1ccc2c(c1)c1c(n2CCc2ccc(C)nc2)CCN(C)C1` [No. 10, 2,8-dimethyl-5-[2-(6-methyl-3-pyridyl)ethyl]-2,3,4,5-tetrahydro-1H-pyrido[4,3-b]indole] was run?
The value was 55%.

What about the “2. Orientation in space, 4 weeks” value [1] of the same compound?
The value was 0 (10×) and 1 and 1.5 (2×) and 0.5.

What about the “4. Memory for the present, 4 weeks” value [1] of the same compound?
The value was 1.5 and 2 (4×) and 1 (3×) and 3 (5×) and 3.5.

What about the “5. Life in the past, 4 weeks” value [1] of the same compound?
Its value is 1 (2×) and 1.5 (2×) and 0.5 (2×) and 2.5 (3×) and 2 (4×) and 3.

What about the “6b. Difficulty in finding words, 4 weeks” value [1] of the same compound?
The value was 0 (9×) and 1 (2×) and 1.5 and 0.5 and 2.

What about the “6c. Naming of objects, 4 weeks” value [1] of the same compound?
Its value is 0 (7×) and 1 (4×) and 2 (3×).

And the “7. Concentration, 4 weeks” value [1]?
The value was 1.5 (2×) and 0 and 1 (3×) and 3 (4×) and 2 (3×) and 0.5.

And the “8b. Lower spirits, 4 weeks” value [1]?
The value was 1 (4×) and 0 (7×) and 0.5 (2×) and 2.

What about the “9. Delirium, 4 weeks” value [1] of the same compound?
Its value is 0 (9×) and 1 (2×) and 2.5 and 1.5 and 2.

And the “13. Irritability, 4 weeks” value [1]?
The value was 0 (12×) and 2 and 1.

And the “14. Anxiety, 4 weeks” value [1]?
The value was 0 (10×) and 1 (4×).

And the “15. Asthenia, 4 weeks” value [1]?
The value was 0 (11×) and 1 (2×) and 0.5.

What about the “16. Headache, 4 weeks” value [1] of the same compound?
The value was 0.5 and 0 (11×) and 1 and 3.

What about the “17. Dizziness, 4 weeks” value [1] of the same compound?
The value was 0.5 and 0 (8×) and 1 (2×) and 2 and 2.5 and 3.

And the “18. Tearfulness, 4 weeks” value [1]?
The value was 1 and 0 (13×).

And the “19. Spontaneous activity, 4 weeks” value [1]?
The value was 1.5 and 1 (5×) and 0.5 and 2 (4×) and 0 (2×) and 3.

And the “20. Elementary self-service, 4 weeks” value [1]?
Its value is 0 (13×) and 1.

And the “6d. Performing instructions, 4 weeks” value [1]?
The value was 1 (4×) and 0 (8×) and 0.5 and 2.

What about the “1. Orientation in locality and time, 8 weeks” value (score after 8 weeks of treatment, per patient, listed as dimebon) of the same compound?
The value was 2 (4×) and 3 (2×) and 1.5 (2×) and 0 and 0.5 (2×) and 1 (2×).

And the “18. Tearfulness, 8 weeks” value (score after 8 weeks, per patient)?
The value was 0.

And the “2. Orientation in space, 8 weeks” value [2]?
Its value is 0 (11×) and 1.5 and 1.

And the “4. Memory for the present, 8 weeks” value [2]?
Its value is 1 (4×) and 0.5 and 1.5 (2×) and 3 (4×) and 2 (2×) and 2.5.

What about the “5. Life in the past, 8 weeks” value [2] of the same compound?
The value was 0.5 (5×) and 1 (2×) and 3 (3×) and 1.5 and 2.5 (2×) and 2.

What about the “6b. Difficulty in finding words, 8 weeks” value [2] of the same compound?
Its value is 0 (11×) and 1.5 and 2 (2×).

And the “6c. Naming of objects, 8 weeks” value [2]?
The value was 0 (9×) and 1 (2×) and 2 (2×) and 1.5.

And the “7. Concentration, 8 weeks” value [2]?
Its value is 1 (5×) and 0 and 3 and 2 (3×) and 3.5 and 2.5 and 4 and 0.5.

What about the “8b. Lower spirits, 8 weeks” value [2] of the same compound?
The value was 0.5 (2×) and 0 (7×) and 1 (4×) and 1.5.

What about the “9. Delirium, 8 weeks” value [2] of the same compound?
The value was 0 (9×) and 1.5 (2×) and 1 (2×) and 2.

And the “13. Irritability, 8 weeks” value [2]?
The value was 0 (12×) and +1 and 1.

And the “14. Anxiety, 8 weeks” value [2]?
Its value is 0 (11×) and 1 (2×) and 0.5.

And the “15. Asthenia, 8 weeks” value [2]?
The value was 0 (13×) and 0.5.

And the “16. Headache, 8 weeks” value [2]?
The value was 0 (8×) and 1 (2×) and 2 and 1.5 and 0.5 and 3.

What about the “17. Dizziness, 8 weeks” value [2] of the same compound?
The value was 0 (8×) and 1.5 and 3 and 2 and 1 (3×).

And the “19. Spontaneous activity, 8 weeks” value [2]?
The value was 1 (7×) and 1.5 and 0 (3×) and 2 (2×) and 4.

What about the “20. Elementary self-service, 8 weeks” value [2] of the same compound?
Its value is 0 (13×) and 2.

What about the “6d. Performing instructions, 8 weeks” value [2] of the same compound?
The value was 1 (5×) and 2.5 and 0 (8×).

What about the “Cognitive functions (first 5 scale points): improvements, %” value (“Cognitive functions … %” for short) (slight (by 0.5 score), 4 weeks) of the same compound?
The value was 5.7* %.

What about the “Cognitive functions (first 5 scale points): improvements, abs.” value (shortened to “Cognitive functions … abs.”) (slight (by 0.5 score), 4 weeks) of the same compound?
The value was 4*.

What about the “Speech functions (items 6b, c, d): improvements, %” value (shortened to “Speech functions … improvements, %”) (slight (by 0.5 score), 4 weeks) of the same compound?
The value was 2.4%.

What about the “Speech functions (items 6b, c, d): improvements, abs.” value (shortened to “Speech functions … improvements, abs.”) (slight (by 0.5 score), 4 weeks) of the same compound?
Its value is 1.

And the “Cognitive functions … %” value (slight (by 0.5 score), 8 weeks)?
Its value is 25.7* %.

And the “Cognitive functions … abs.” value (slight (by 0.5 score), 8 weeks)?
Its value is 18*.

What about the “Speech functions (items 6b, c, d): deteriorations, %” value (from here on “Speech functions … deteriorations, %”) (slight (by 0.5 score), 8 weeks) of the same compound?
Its value is 2.4%.

What about the “Speech functions (items 6b, c, d): deteriorations, abs.” value (slight (by 0.5 score), 8 weeks) of the same compound?
The value was 1.

And the “Speech functions … improvements, %” value (slight (by 0.5 score), 8 weeks)?
The value was 7.14%.

What about the “Speech functions … improvements, abs.” value (slight (by 0.5 score), 8 weeks) of the same compound?
Its value is 3.

What about the “Cognitive functions … %” value (total, 4 weeks) of the same compound?
Its value is 11.4%.

And the “Cognitive functions … abs.” value (total, 4 weeks)?
The value was 8.

What about the “Speech functions … deteriorations, %” value (total, 4 weeks) of the same compound?
Its value is 2.4%.

And the “Speech functions (items 6b, c, d): deteriorations, abs.” value (total, 4 weeks)?
The value was 1.

And the “Speech functions … improvements, %” value (total, 4 weeks)?
The value was 9.5%.

And the “Speech functions … improvements, abs.” value (total, 4 weeks)?
Its value is 4.

What about the “Cognitive functions … %” value (total, 8 weeks) of the same compound?
Its value is 34.3%.

And the “Cognitive functions … abs.” value (total, 8 weeks)?
The value was 24.

What about the “Speech functions … deteriorations, %” value (total, 8 weeks) of the same compound?
Its value is 9.6%.

What about the “Speech functions (items 6b, c, d): deteriorations, abs.” value (total, 8 weeks) of the same compound?
Its value is 4.

What about the “Speech functions … improvements, %” value (total, 8 weeks) of the same compound?
Its value is 14.3%.

And the “Speech functions … improvements, abs.” value (total, 8 weeks)?
The value was 6.

What about the “Item 10. hearing hallucinations” value (whole period of investigations, all patients) of the same compound?
Its value is “Item 10. No hearing hallucinations were observed throught the whole period of investigations”.
